Assay results published in patent publication US4018801A, “Substituted oxirane compounds” (The Dow Chemical Company, priority 1975, dated 1977).

How the values were obtained:
Test in all cases: Pre-emergent control of seed germination, soil drench
Assay type in all cases: in vivo
[1] = test system: Johnson Grass; settings: Table IV, Johnson Grass
Text: (§1) Four parts by weight of the compound, 0.08 part of sorbitan trioleate (Span 85), and 0.02 part of a sorbitan monooleate polyoxyethylene derivative (Tween 80) are dipersed in 40 milliliters of acetone to produce a concentrate composition in the form of a water-dispersible liquid containing the predetermined oxirane compound as the sole active agent.
(§2) A portion of each of these concentrate compositions were separately dispersed in portions of water to provide aqueous compositions, containing 0.44 pound of the oxirane compound per 100 gallons of ultimate aqueous mixture.
(§3) The aqueous compositions were then employed for the treatment of seed beds of good agricultural soil which had been prepared and seeded with the seeds of various grass species and broadleaf plants. The grass species included white winter wheat, cultured rice, pigweeds, crabgrass, cheat grass, wild oats, Johnson grass, barnyard grass and yellow foxtail; and the broadleaf plants included corn. In the treating operations, a predetermined quantity of each of the compositions was applied to separate seedbeds as a soil drench at a rate of about 0.43 acre inch of aqueous composition per acre. The quantities were controlled to supply a substantial uniform dosage in a seedbed equivalent to 1.0, 2.0 and 5.0 pounds of the oxirane compound per acre. These dosages correspond, respectively, to a concentration, within the soil depth penetrated of about 1.6, 3.2 and 8.0 parts by weight of the oxirane compound per million parts by weight of soil. Other seedbeds were similarly seeded with the named plant species but were left untreated to serve as checks.
(§4) After about 2 weeks the seedbeds were examined to ascertain what control of the growth of seeds had been obtained.
(§5) were prepared as in Example 32 and similarly employed for the pre-emergencetreatment of various plant species.
(§6) Separate aqueous compositions containing the 2-(m-chlorophenyl)-2-(2,2,2-trichloroethyl)oxirane (Cmpd. A) and 2-(m-bromophenyl)-2-(2,2,2-trichloroethyl)oxirane (Cmpd. C) compounds of the present invention were prepared as in Example 32 for comparative per-emergence herbicide tests against noxious grass species with the known 2 -(p-chlorophenyl)-2-(2,2,2-trichloroethyl)oxirane (Cmpd. B) compound and 2-(p-bromophenyl)-2-(2,2,2-trichloroethyl)oxirane (Cmpd. D). The pre-emergence tests were conducted in Example 32 and the results of such tests are set forth below in Table III.
(§7) An aqueous composition containing 2-(α,α,α -trifluoro-m-tolyl)-2-(2,2,2-trichloroethyl)oxirane was prepared as described in Example 32. The composition was then employed according to the procedures of Example 32 except that lower concentrations of the oxirane compound were employed in the composition.
(§8) The percent control of the various plant species at the employed dosage rate of the 2-(α,α,α-trifluoro-m-tolyl)- 2-(2,2,2-trichloroethyl) supplied by the composition is set forth in the following Table IV.

[2] = test system: Crabgrass; settings: Table IV, Crabgrass
Text: as §1, §2, §3, §4, §5, §6, §7, §8

[3] = test system: Pigweeds; settings: for Percent Pre-Emergent Control of Seed Germination: Table IV, Pigweeds
Text: as §1, §2, §3, §4, §5, §7, §8

[4] = test system: Barnyard Grass; settings: for Percent Pre-Emergent Control of Seed Germination: Table IV, Barnyard Grass
Text: as §1, §2, §3, §4, §5, §7, §8

[5] = test system: Yellow Foxtail; settings: for Percent Pre-Emergent Control of Seed Germination: Table IV, Yellow Foxtail
Text: as §1, §2, §3, §4, §5, §7, §8

[6] = test system: Wild Oats; settings: for Percent Pre-Emergent Control of Seed Germination: Table IV, Wild Oats
Text: as §1, §2, §3, §4, §5, §7, §8

[7] = test system: Soybeans; settings: Table IV
[8] = test system: Cotton; settings: Table IV
Text: as §1, §2, §3, §4, §6, §7, §8

[9] = test system: Beans; settings: Table IV
Text: as §1, §2, §3, §4, §7, §8

[10] = test system: Cultured Rice; settings: Table IV
Text: as §1, §2, §3, §4, §7, §8

[11] = test system: White Winter Wheat; settings: Table IV
Text: as §1, §2, §3, §4, §7, §8

[12] = test system: Corn; settings: Table IV
Text: as §1, §2, §3
After about 2 weeks the seedbeds were examined to ascertain what control of the growth of seeds had been obtained. […]
as §7, §8

[13] = test system: Crabgrass; settings: 20 pounds per acre

FC(F)(F)c1cccc(C2(CC(Cl)(Cl)Cl)CO2)c1 (stereo not drawn) [Example 4, 2-(α,α,α -trifluoro-m-tolyl)-2-(2,2,2-trichloroethyl)oxirane]
50%: Percent Pre-Emergent Control of Seed Germination ([3]; 0.13 pounds) | Percent Pre-Emergent Control of Seed Germination ([4]; 0.03 pounds) | Percent Pre-Emergent Control of Seed Germination ([7]; 0.5 pounds) | Percent Pre-Emergent Control of Seed Germination ([11]; 0.07 pounds)
70%: Percent Pre-Emergent Control of Seed Germination ([9]; 0.5 pounds)
75%: Percent Pre-Emergent Control of Seed Germination ([2]; 0.07 pounds)
90%: Percent Pre-Emergent Control of Seed Germination ([12]; 0.25 pounds)
20%: Percent Pre-Emergent Control of Seed Germination ([8]; 1.0 pounds)
0%: Percent Pre-Emergent Control of Seed Germination ([1]; 0.03 pounds) | Percent Pre-Emergent Control of Seed Germination ([3]; 0.03 pounds) | Percent Pre-Emergent Control of Seed Germination ([5]; 0.07 pounds) | Percent Pre-Emergent Control of Seed Germination ([7]; 0.03 pounds) | Percent Pre-Emergent Control of Seed Germination ([7]; 0.07 pounds) | Percent Pre-Emergent Control of Seed Germination ([8]; 0.03 pounds) | Percent Pre-Emergent Control of Seed Germination ([8]; 0.07 pounds) | Percent Pre-Emergent Control of Seed Germination ([8]; 0.13 pounds) | Percent Pre-Emergent Control of Seed Germination ([8]; 0.25 pounds) | Percent Pre-Emergent Control of Seed Germination ([10]; 0.03 pounds) | Percent Pre-Emergent Control of Seed Germination ([11]; 0.03 pounds) | Percent Pre-Emergent Control of Seed Germination ([12]; 0.03 pounds) | Percent Pre-Emergent Control of Seed Germination ([12]; 0.07 pounds) | Percent Pre-Emergent Control of Seed Germination ([12]; 0.13 pounds)
80%: Percent Pre-Emergent Control of Seed Germination ([1]; 0.07 pounds)
95%: Percent Pre-Emergent Control of Seed Germination ([4]; 0.07 pounds) | Percent Pre-Emergent Control of Seed Germination ([4]; 0.13 pounds) | Percent Pre-Emergent Control of Seed Germination ([4]; 0.25 pounds) | Percent Pre-Emergent Control of Seed Germination ([4]; 0.5 pounds) | Percent Pre-Emergent Control of Seed Germination ([4]; 1.0 pounds) | Percent Pre-Emergent Control of Seed Germination ([5]; 0.13 pounds) | Percent Pre-Emergent Control of Seed Germination ([6]; 0.13 pounds) | Percent Pre-Emergent Control of Seed Germination ([6]; 0.25 pounds) | Percent Pre-Emergent Control of Seed Germination ([6]; 0.5 pounds) | Percent Pre-Emergent Control of Seed Germination ([6]; 1.0 pounds) | Percent Pre-Emergent Control of Seed Germination ([9]; 1.0 pounds) | Percent Pre-Emergent Control of Seed Germination ([12]; 0.5 pounds) | Percent Pre-Emergent Control of Seed Germination ([12]; 1.0 pounds)
30%: Percent Pre-Emergent Control of Seed Germination ([3]; 0.07 pounds) | Percent Pre-Emergent Control of Seed Germination ([5]; 0.03 pounds) | Percent Pre-Emergent Control of Seed Germination ([6]; 0.03 pounds) | Percent Pre-Emergent Control of Seed Germination ([8]; 0.5 pounds) | Percent Pre-Emergent Control of Seed Germination ([9]; 0.03 pounds) | Percent Pre-Emergent Control of Seed Germination ([9]; 0.07 pounds) | Percent Pre-Emergent Control of Seed Germination ([9]; 0.13 pounds) | Percent Pre-Emergent Control of Seed Germination ([10]; 0.07 pounds)
85%: Percent Pre-Emergent Control of Seed Germination ([6]; 0.07 pounds)
40%: Percent Pre-Emergent Control of Seed Germination ([7]; 0.25 pounds)
60%: Percent Pre-Emergent Control of Seed Germination ([2]; 0.03 pounds) | Percent Pre-Emergent Control of Seed Germination ([7]; 1.0 pounds) | Percent Pre-Emergent Control of Seed Germination ([9]; 0.25 pounds)
100%: Percent Pre-Emergent Control of Seed Germination ([1]; 0.13 pounds) | Percent Pre-Emergent Control of Seed Germination ([1]; 0.25 pounds) | Percent Pre-Emergent Control of Seed Germination ([1]; 0.5 pounds) | Percent Pre-Emergent Control of Seed Germination ([1]; 1.0 pounds) | Percent Pre-Emergent Control of Seed Germination ([2]; 0.13 pounds) | Percent Pre-Emergent Control of Seed Germination ([2]; 0.25 pounds) | Percent Pre-Emergent Control of Seed Germination ([2]; 0.5 pounds) | Percent Pre-Emergent Control of Seed Germination ([2]; 1.0 pounds) | Percent Pre-Emergent Control of Seed Germination ([3]; 0.25 pounds) | Percent Pre-Emergent Control of Seed Germination ([3]; 0.5 pounds) | Percent Pre-Emergent Control of Seed Germination ([3]; 1.0 pounds) | Percent Pre-Emergent Control of Seed Germination ([5]; 0.25 pounds) | Percent Pre-Emergent Control of Seed Germination ([5]; 0.5 pounds) | Percent Pre-Emergent Control of Seed Germination ([5]; 1.0 pounds) | Percent Pre-Emergent Control of Seed Germination ([7]; 0.13 pounds) | Percent Pre-Emergent Control of Seed Germination ([10]; 0.13 pounds) | Percent Pre-Emergent Control of Seed Germination ([10]; 0.25 pounds) | Percent Pre-Emergent Control of Seed Germination ([10]; 0.5 pounds) | Percent Pre-Emergent Control of Seed Germination ([10]; 1.0 pounds) | Percent Pre-Emergent Control of Seed Germination ([11]; 0.13 pounds) | Percent Pre-Emergent Control of Seed Germination ([11]; 0.25 pounds) | Percent Pre-Emergent Control of Seed Germination ([11]; 0.5 pounds) | Percent Pre-Emergent Control of Seed Germination ([11]; 1.0 pounds)

ClC(Cl)(Cl)CC1(c2cccc(OCc3ccccc3)c2)CO1 (centres unmarked) [Example 16, 2-(m-(benzyloxy)phenyl)-2-(2,2,2-trichloroethyl)oxirane]
substantially complete control: pre-emergence control [13] | pre-emergence control ([3]; pigweed, 20 pounds per acre) | pre-emergence control ([4]; barnyard grass, 20 pounds per acre) | pre-emergence control ([5]; yellow foxtail, 20 pounds per acre) | pre-emergence control ([6]; wild oats, 20 pounds per acre)
